# Columns and labels:
# [1] = system: PC12-ND6 cells; experiment: NaBt dose-dependent acetylation of nuclear proteins (anti-acetylated Lys immunocytochemistry); format: cell-based; conditions: three days, 2, 5 and 10 mM tested
# Source text: FIG. 4A-4E are images from microscopy and graphs showing NaBt dose-dependent acetylation and cellular toxicity in PC12-ND6 cells and embryonic E17.5 hippocampal neurons. (A) Confocal micrographs of PC12-ND6 cells (referred to as ND6) grown in the absence or presence of NaBt for three days and labeled with an anti-acetylated Lys antibody (AcLys; green). Scale bar represents 10 μm. […] Results are expressed as relative fluorescence intensity±S.D. (n=250 cells per NaBt concentration; * p=0.0001). (C) Effect of NaBt on PC12-ND6 cell viability. […] Mean±SEM (n=250 cells for each experimental condition; * p=0.0001). (D) Confocal micrographs of NaBt dose-dependent acetylation in E17.5 hippocampal neurons (AcLys; green). Scale bar represents 10 μm.
# Sodium butyrate increases protein acetylation in a dose-dependent manner without inducing cellular toxicity. A dose response analysis was performed to determine the optimal concentration of sodium butyrate (NaBt) for inducing maximal acetylation levels with minimal cellular toxicity. PC12-ND6 cells were treated with different concentrations of NaBt (2 mM, 5 mM, and 10 mM) for three days before assessing the degree of acetylated lysine residues by immunocytochemistry and cell viability by live-cell confocal microscopy using the Nuclear-ID™ stain.
# [2] = system: histones H2B, H3 and H4 proteins; experiment: Acetylation of specific lysine residues of histones (immunocytochemistry); format: cell-based; conditions: NaBt 5 mM, three days, PC12-ND6 cells
# Experimental: PC12-ND 6 cells were treated with NaBt (5 mM) for three days before performing immunocytochemistry to evaluate the acetylation status of lysine residues of key histone proteins, as listed on top of each confocal micrograph. Left panels illustrate representative pictures of PC12-ND6 cells grown in the absence (control) or presence of NaBt for three days and labeled with specific acetylated Lys antibody (green) and DAPI as a nuclear label (blue). Scale bar represents 10 μm. The right panels show the graph for each quantification of acetylated lysine residue for key histone proteins. Results are expressed as relative fluorescence intensity±S.D. (1000 cells per condition; n=3; * p=0.0001).
# Sodium butyrate induces epigenetic reprogramming by acetylating key amino acid residues of histone proteins H2B, H3 and H4. Histone acetylation, which is mediated by two groups of enzymes, histone acetyltransferases (HATs) and histone deacetylases (HDAC), promote gene expression responsible to induce differentiation of neural stem cells and neural progenitor cells. Epigenetic regulators, such as the NaBt and its derivatives, inhibit the activity of HDAC enzymes, thereby favoring HAT activity and inducing an open chromatin structure to allow easy access to the DNA via histone acetylation. Thus, which lysine residues of key histone proteins were targeted by NaBt ws investigated. The lysine residue K27 of the histone H3 protein was targeted, as it is known to be acetylated to favor expression of lineage-specific genes associated with neural differentiation of progenitors and stem cells. Immunocytochemistry results confirmed that NaBt induced a 210% increased acetylation of the K27 residue of H3 (FIG. 5). Analysis was extended to additional acetylation marks, such as the lysine residue K9 of the histone H3, the K12 residue of histone H4 […] are important indicators of active enhancer elements. […] Thus, NaBt induces a specific epigenetic reprogramming of neural-like progenitor PC12-ND6 cell by inducing a series of acetylation marks to confer transcriptional competence.
# [3] = system: neuronal cells; experiment: Live cell Mg2+-based ATP assay; conditions: NaBt-treated cells
# Experimental: FIG. 9A-9C are graphs and images from microscopy showing that NaBt enhances mitochondrial bioenergetics. (A) Flow cytometric analysis of Δψm; *p<0.001. (B) ATP levels in live cells using a Mg^2+-based assay; *p<0.001. (C) Electron microscopy of mitochondria in control and NaBt-treated cells; scale bar=200 nm.
# NaBt increases mitochondrial membrane potential (Δψm) and ATP levels. The MTR-based data raised the question: could NaBt also enhance mitochondrial bioenergetics? Δψm was assessed by live cell confocal microscopy and flow cytometry using the TMRM dye, which accumulates in the mitochondrial matrix in a Δψm-dependent fashion. A 1.5-fold increase in Δψm in NaBt-treated cells was observed (FIG. 9A). To test whether enhanced Δψm led to increased ATP output, ATP levels were monitored using the live cell Mg^2+-based ATP assay, which is compatible with the TMRM dye, allowing simultaneous recordings. A 1.6-fold increase in ATP levels in NaBt-treated cells was observed (FIG. 9B), in line with the MTR- and TMRM-based findings and the elongated mitochondrial morphology.
# [4] = system: E17.5 hippocampal neurons; experiment: Neuronal stage 3 frequency with chloramphenicol and NaBt; format: cell-based
# Source text: FIG. 16A-16I are images from microscopy and a graph showing that Pre-treatment of E17.5 hippocampal neurons with NaBt protects against chloramphenicol-induced loss of neuronal differentiation. (A-D) Confocal micrographs of E17.5 hippocampal neurons exposed to different concentrations of chloramphenicol at 2DIV and labeled with anti tubulin antibody (red) and nuclear counterstain DAPI (blue) at 3DIV. Scale bar represents 10 μm. (E-H) Confocal micrographs of E17.5 hippocampal neurons treated with NaBt (2 mM) at 1DIV prior to exposure to different concentrations of chloramphenicol at 2DIV and labeled with anti tubulin antibody (red) and nuclear counterstain DAPI (blue) at 3DIV. Scale bar represents 10 μm. (I) Graph of E17.5 β-III^+ hippocampal neurons at the neuronal stage 3. Mean±S.D. (n=250 cells; compared to untreated control *p=0.0001; compared to the corresponding non-NaBt treated sample **p=0.0001; compared to non-NaBt treated cells exposed to Cm at 30 μM‡p=0.007).
# The consequences of chloramphenicol exposure on untreated or NaBt-treated E17.5 hippocampal neurons was examined. At 1DIV, dissociated E17.5 hippocampal neurons were switched to differentiation medium in the absence or presence of NaBt (2 mM) for 24 hours before being treated with increasing concentrations of chloramphenicol (0, 15, 30, and 60 μM) for 24 hours. At 3DIV, their phenotypic differentiation was examined by immunocytochemistry using an antibody against the pan-neuronal marker β-III tubulin and quantified the percent of neurons having reached the developmental stage 3 for each experimental condition. As expected, only half of untreated neurons reached stage 3 in the absence of NaBt, while more than 90% of NaBt-treated neurons achieved such degree of differentiation, thereby forming an elaborate neuritic network (FIGS. 16A, E, and I).
# [5] = system: HDAC1-3 enzymes; conditions: via the HDAC1-3 enzymes; cited from earlier work
smiles,measurement,setting,value
"CCCC(=O)[O-].[Na+] [NaBt, sodium butyrate]",NaBt concentration showing maximal acetylation levels of nuclear proteins,[1],5 mM
same,acetylation of histone H2B,[2],hyperacetylated
same,increased acetylation of H3K9,[2],250%
same,increased acetylation of H4K12,[2],124%
same,increased acetylation of the K27 residue of H3,[2],210%
same,increase in ATP levels,[3],1.6 fold
same,frequency of advanced neuronal stage with NaBt pre-treatment,[4]; NaBt 2 mM prior to chloramphenicol up to 60 μM,sustained the frequency of advanced neuronal stage
same,percent of neurons reaching stage 3,"[4]; NaBt 2 mM, no chloramphenicol, 3DIV",more than 90%
same,subset of genes targeted,[5],2-5%

# From patent US10272056B2, “Treatment for mitochondrial diseases” (The George Washington University a Congressionally …, priority 2015, dated 2019)
